Legend:
CD73 [1] = molecular target: T1, CD73 (Homo sapiens (Human), UniProt P21589); type: biochemical; settings: 1 mM NaH2PO4 in enzyme buffer, CD73 0.3 nM, AMP 15 uM
CD73 [2] = molecular target: T1, CD73; test: MDA-MB-231 Cell Based CD73 Activity Assay (DMEM); settings: MDA-MB-231-GFP cells, DMEM medium with 10% human plasma, 200 uM AMP

T1 sequence (P21589 27-574): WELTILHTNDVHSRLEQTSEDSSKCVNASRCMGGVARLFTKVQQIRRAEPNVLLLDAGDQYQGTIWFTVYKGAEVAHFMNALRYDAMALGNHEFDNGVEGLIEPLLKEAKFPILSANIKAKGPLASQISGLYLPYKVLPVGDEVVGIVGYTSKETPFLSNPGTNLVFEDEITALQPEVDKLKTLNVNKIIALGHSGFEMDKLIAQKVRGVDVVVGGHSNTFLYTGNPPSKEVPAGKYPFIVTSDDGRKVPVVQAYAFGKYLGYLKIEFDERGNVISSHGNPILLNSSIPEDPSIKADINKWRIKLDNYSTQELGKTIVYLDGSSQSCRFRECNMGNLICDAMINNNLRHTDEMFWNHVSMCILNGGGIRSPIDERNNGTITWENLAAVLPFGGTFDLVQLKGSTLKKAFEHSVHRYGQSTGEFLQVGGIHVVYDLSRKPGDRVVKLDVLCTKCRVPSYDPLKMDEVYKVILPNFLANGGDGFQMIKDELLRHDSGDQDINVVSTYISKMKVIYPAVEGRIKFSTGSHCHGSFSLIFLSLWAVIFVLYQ

| SMILES | IC50 (CD73 [1]) [nM] | EC50 (CD73 [2]) [nM] |
| --- | --- | --- |
| O=c1[nH]cc(-c2cc(NCC(F)(F)c3ccccc3)c3nccn3n2)c(=O)[nH]1 [Example 498, 5-(8-((2,2-difluoro-2-phenylethyl)amino)imidazo[1,2-b]pyridazin-6-yl)pyrimidine-2,4(1H,3H)-dione] | 50.7 | 260 |
| C[C@@H](CNc1cc(-c2c[nH]c(=O)[nH]c2=O)nn2ccnc12)c1ccccc1 [Example 500, (R)-5-(8-((2-phenylpropyl)amino)imidazo[1,2-b]pyridazin-6-yl)pyrimidine-2,4(1H,3H)-dione] | 108 | 457 |
| O=c1[nH]cc(-c2cc(N3CC(F)(F)C4(CNC4)C3)c3nccn3n2)c(=O)[nH]1 [Example 501, 5-(8-(8,8-difluoro-2,6-diazaspiro[3.4]octan-6-yl)imidazo[1,2-b]pyridazin-6-yl)pyrimidine-2,4(1H,3H)-dione] | 20.9 | 108 |
| O=c1[nH]cc(-c2cc(N3CC(F)(F)C4(CN(Cc5cccc(F)c5)C4)C3)c3nccn3n2)c(=O)[nH]1 [Example 502, 5-(8-(8,8-difluoro-2-(3-fluorobenzyl)-2,6-diazaspiro[3.4]octan-6-yl)imidazo[1,2-b]pyridazin-6-yl)pyrimidine-2,4(1H,3H)-dione] | 9.06 | 44.4 |
| COC(=O)N1CC2(C1)CN(c1cc(-c3c[nH]c(=O)[nH]c3=O)nn3ccnc13)CC2(F)F [Example 504, Methyl 6-(6-(2,4-dioxo-1,2,3,4-tetrahydropyrimidin-5-yl)imidazo[1,2-b]pyridazin-8-yl)-8,8-difluoro-2,6-diazaspiro[3.4]octane-2-carboxylate] | 6.78 | 5.62 |
| O=C(OCc1ccccc1)N1CC2(C1)CN(c1cc(-c3c[nH]c(=O)[nH]c3=O)nn3ccnc13)CC2(F)F [Example 505, benzyl 6-(6-(2,4-dioxo-1,2,3,4-tetrahydropyrimidin-5-yl)imidazo[1,2-b]pyridazin-8-yl)-8,8-difluoro-2,6-diazaspiro[3.4]octane-2-carboxylate] | 5.61 | 10.1 |
| O=c1[nH]cc(-c2cc(N3CC(F)(F)C4(CN(CC(F)(F)F)C4)C3)c3nccn3n2)c(=O)[nH]1 [Example 508, 5-(8-(8,8-difluoro-2-(2,2,2-trifluoroethyl)-2,6-diazaspiro[3.4]octan-6-yl)imidazo[1,2-b]pyridazin-6-yl)pyrimidine-2,4(1H,3H)-dione] | 15 | 29 |
| Cn1ccc(-c2cc(-c3c[nH]c(=O)[nH]c3=O)nn3ccnc23)n1 [Example 512, 5-(8-(1-methyl-1H-pyrazol-3-yl)imidazo[1,2-b]pyridazin-6-yl)pyrimidine-2,4(1H,3H)-dione] | > 250 | 1140 |
| CC1(C)CC(=O)N(c2cc(-c3c[nH]c(=O)[nH]c3=O)nn3ccnc23)C1 [Example 513, 5-(8-(4,4-dimethyl-2-oxopyrrolidin-1-yl)imidazo[1,2-b]pyridazin-6-yl)pyrimidine-2,4(1H,3H)-dione] | > 250 | 934 |
| CC1(C)CN(c2cc(-c3c[nH]c(=O)[nH]c3=O)nn3ccnc23)C(=O)O1 [Example 514, 5-(8-(5,5-dimethyl-2-oxooxazolidin-3-yl)imidazo[1,2-b]pyridazin-6-yl)pyrimidine-2,4(1H,3H)-dione] | 212 | 269 |
| CC1(C)CN(c2cc(-c3c[nH]c(=O)[nH]c3=O)nn3c(Cl)c(Cl)nc23)CC1(F)F [Example 515, 5-(2,3-dichloro-8-(3,3-difluoro-4,4-dimethylpyrrolidin1-yl)imidazo[1,2-b]pyridazin-6-yl)pyrimidine-2,4(1H,3H)-dione] | 1.72 | 228 |
| C[C@H]1CN(c2cc(-c3c[nH]c(=O)[nH]c3=O)nn3ccnc23)CC1(F)F [Example 516, (S)-5-(8-(3,3-difluoro-4-methylpyrrolidin-1-yl)imidazo[1,2-b]pyridazin-6-yl)pyrimidine-2,4(1H,3H)-dione] | 3.17 | 12.8 |
| C[C@H]1CN(c2cc(-c3c[nH]c(=O)[nH]c3=O)nn3c(Cl)cnc23)CC1(F)F [Example 520, (S)-5-(3-chloro-8-(3,3-difluoro-4-methylpyrrolidin-1-yl)imidazo[1,2-b]pyridazin-6-yl)pyrimidine-2,4(1H,3H)-dione] | 43.8 | 421 |
| C[C@@H]1CN(c2cc(-c3c[nH]c(=O)[nH]c3=O)nn3c(Cl)cnc23)CC1(F)F [Example 521, (R)-5-(3-chloro-8-(3,3-difluoro-4-methylpyrrolidin-1-yl)imidazo[1,2-b]pyridazin-6-yl)pyrimidine-2,4(1H,3H)-dione] | 33.3 | 223 |
| CC1(C)CN(c2cc(-c3c[nH]c(=O)[nH]c3=O)nn3c(Cl)cnc23)CC1(F)F [Example 522, 5-(3-chloro-8-(3,3-difluoro-4,4-dimethylpyrrolidin-1-yl)imidazo[1,2-b]pyridazin-6-yl)pyrimidine-2,4(1H,3H)-dione] | 1.26 | 23.6 |
| O=c1[nH]cc(-c2cc(N3CC(Oc4ccc(C(F)(F)F)cn4)C(F)(F)C3)c3nccn3n2)c(=O)[nH]1 (stereo not drawn) [Example 523, 5-(8-(3,3-difluoro-4-((5-(trifluoromethyl)pyridin-2-yl)oxy)pyrrolidin-1-yl)imidazo[1,2-b]pyridazin-6-yl)pyrimidine-2,4(1H,3H)-dione] | 1.92 | 3.96 |

Results, then the compound that gave them:

| IC50 (CD73 [1]) [nM] | EC50 (CD73 [2]) [nM] | SMILES |
| --- | --- | --- |
| 163 | 501 | C[C@H](CNc1cc(-c2c[nH]c(=O)[nH]c2=O)nn2ccnc12)c1ccccc1 [Example 499, (S)-5-(8-((2-phenylpropyl)amino)imidazo[1,2-b]pyridazin-6-yl)pyrimidine-2,4(1H,3H)-dione] |
| 5.22 | 5.47 | CC(=O)N1CC2(C1)CN(c1cc(-c3c[nH]c(=O)[nH]c3=O)nn3ccnc13)CC2(F)F [Example 503, 5-(8-(2-acetyl-8,8-difluoro-2,6-diazaspiro[3.4]octan-6-yl)imidazo[1,2-b]pyridazin-6-yl)pyrimidine-2,4(1H,3H)-dione] |
| 8.82 | 8.67 | O=C(OCC(F)(F)F)N1CC2(C1)CN(c1cc(-c3c[nH]c(=O)[nH]c3=O)nn3ccnc13)CC2(F)F [Example 506, 2,2,2-trifluoroethyl 6-(6-(2,4-dioxo-1,2,3,4-tetrahydropyrimidin-5-yl)imidazo[1,2-b]pyridazin-8-yl)-8,8-difluoro-2,6-diazaspiro[3.4]octane-2-carboxylate] |
| 9.83 | 19.7 | O=c1[nH]cc(-c2cc(N3CC(F)(F)C4(CN(CC(F)F)C4)C3)c3nccn3n2)c(=O)[nH]1 [Example 507, 5-(8-(2-(2,2-difluoroethyl)-8,8-difluoro-2,6-diazaspiro[3.4]octan-6-yl)imidazo[1,2-b]pyridazin-6-yl)pyrimidine-2,4(1H,3H)-dione] |
| 49.5 | 90.1 | O=c1[nH]cc(-c2cc(-c3cnn(C(F)F)c3)c3nccn3n2)c(=O)[nH]1 [Example 509, 5-(8-(1-(difluoromethyl)-1H-pyrazol-4-yl)imidazo[1,2-b]pyridazin-6-yl)pyrimidine-2,4(1H,3H)-dione] |
| 246 | 382 | COCCn1cc(-c2cc(-c3c[nH]c(=O)[nH]c3=O)nn3ccnc23)cn1 [Example 510, 5-(8-(1-(2-methoxyethyl)-1H-pyrazol-4-yl)imidazo[1,2-b]pyridazin-6-yl)pyrimidine-2,4(1H,3H)-dione] |
| > 250 | 431 | O=c1[nH]cc(-c2cc(-c3cnn(CCN4CCOCC4)c3)c3nccn3n2)c(=O)[nH]1 [Example 511, 5-(8-(1-(2-morpholinoethyl)-1H-pyrazol-4-yl)imidazo[1,2-b]pyridazin-6-yl)pyrimidine-2,4(1H,3H)-dione] |
| 5.23 | 21.4 | C[C@@H]1CN(c2cc(-c3c[nH]c(=O)[nH]c3=O)nn3ccnc23)CC1(F)F [Example 517, (R)-5-(8-(3,3-difluoro-4-methylpyrrolidin-1-yl)imidazo[1,2-b]pyridazin-6-yl)pyrimidine-2,4(1H,3H)-dione] |
| 5.5 | 19.6 | C[C@H]1CN(c2cc(-c3c[nH]c(=O)[nH]c3=O)nn3c(F)cnc23)CC1(F)F [Example 518, (S)-5-(8-(3,3-difluoro-4-methylpyrrolidin-1-yl)-3-fluoroimidazo[1,2-b]pyridazin-6-yl)pyrimidine-2,4(1H,3H)-dione] |
| 6.58 | 18.3 | C[C@@H]1CN(c2cc(-c3c[nH]c(=O)[nH]c3=O)nn3c(F)cnc23)CC1(F)F [Example 519, (R)-5-(8-(3,3-difluoro-4-methylpyrrolidin-1-yl)-3-fluoroimidazo[1,2-b]pyridazin-6-yl)pyrimidine-2,4(1H,3H)-dione] |
| 3.75 | 11 | O=c1[nH]cc(-c2cc(N3CC(OCC(F)F)C(F)(F)C3)c3nccn3n2)c(=O)[nH]1 (stereo not drawn) [Example 524, 5-(8-(4-(2,2-difluoroethoxy)-3,3-difluoropyrrolidin-1-yl)imidazo[1,2-b]pyridazin-6-yl)pyrimidine-2,4(1H,3H)-dione] |
| 1.54 | 4.43 | CCOC(=O)OC1CN(c2cc(-c3c[nH]c(=O)[nH]c3=O)nn3ccnc23)CC1(F)F (stereo not drawn) [Example 525, 1-(6-(2,4-dioxo-1,2,3,4-tetrahydropyrimidin-5-yl)imidazo[1,2-b]pyridazin-8-yl)-4,4-difluoropyrrolidin-3-yl ethyl carbonate] |
| 1.32 | 1.13 | CCNC(=O)OC1CN(c2cc(-c3c[nH]c(=O)[nH]c3=O)nn3ccnc23)CC1(F)F (stereo not drawn) [Example 526, 1-(6-(2,4-dioxo-1,2,3,4-tetrahydropyrimidin-5-yl)imidazo[1,2-b]pyridazin-8-yl)-4,4-difluoropyrrolidin-3-yl ethylcarbamate] |
| 0.7 | 2.25 | O=c1[nH]cc(-c2cc(N3C[C@H](Oc4ccc(C(F)(F)F)cn4)C(F)(F)C3)c3nccn3n2)c(=O)[nH]1 [Example 529, (S)-5-(8-(3,3-difluoro-4-((5-(trifluoromethyl)pyridin-2-yl)oxy)pyrrolidin-1-yl)imidazo[1,2-b]pyridazin-6-yl)pyrimidine-2,4(1H,3H)-dione] |

Source: patent publication US20240043427A1 (Gilead Sciences, Inc., priority 2020, published 2024)
